SMILES strings stand for the structures. A value given as a limit tells only on which side of the number the result lay.

Consider `COC1CCC2(C)C(CCC3C2CCC2(C)C(C(C)=O)CCC32)C1` (stereo not drawn), for which the melting point is 125 to 126 °C.

In turn, `CC1Cc2cc3c(cc2C(c2ccc([N+](=O)[O-])cc2)=NN1c1nc(=O)n(C2CC2)s1)OCO3` (stereo not drawn) showed a melting point of 246 to 247 °C.

In turn, `Cc1c(S(=O)(=O)c2ccc(=O)[nH]n2)sc2ccc(Cl)cc12` displayed a melting point of 258 to 259 °C.

In turn, `Cc1cn2nc(-c3ccccc3)nc2cc1C(=O)O` showed a melting point of 228 to 233 °C.

The molecule `N#Cc1cc(O)c(O)c([N+](=O)[O-])c1` had a melting point of 175 to 178 °C.

The molecule `OCc1c(CO)c(-c2ccncc2)n2c1CCC2` had a melting point of 173 to 175 °C.

Molecule `COc1ccc2cc(CCl)ccc2c1` came in with a melting point of 63 to 65 °C.

`SC1=Nc2ccccc2SN1`: the melting point lay in the range of 198 to 199 °C.

With `CN1CCC(N(CCCC2CCCO2)S(=O)(=O)c2ccc(Nc3nccc(Nc4ccc(F)cc4)n3)cc2)CC1` (stereo not drawn), the melting point is 189 °C.

The molecule `CCOC(=O)N1CC[C@H](O)[C@@H]1C(c1ccccc1)c1ccccc1` (relative stereo) returned a melting point of 104 to 105 °C.

`N=C(NC(=O)c1ccccc1)Oc1ccccc1` registered a melting point of 125 °C.

`COCC(C)N(Cc1ccc(OC)c(OC)c1)C(=O)C(Cl)Cl` (stereo not drawn): the melting point fell in the range of 75 to 76 °C.

`Clc1ccc2c(c1)[C@@H](c1ccccc1)[C@H]1CN(Cc3ccccc3)C[C@H]1C2` (racemic) displayed a melting point of 115 to 117 °C.

Consider `Cc1nc(-c2ncn3c2c(C)nc2ccccc23)no1`, for which the melting point is 192 to 193 °C.

The molecule `CCOC(=O)c1cnc(-c2ccccc2)nc1Nc1ccccc1N` registered a melting point of 154 to 156 °C.

The molecule `C=C(C(=O)c1ccc(OC)c(Cl)c1Cl)c1ccccc1` yielded a melting point of 83.5 to 86 °C.

Consider `COc1ccc(C=C2c3ccccc3C(=NO)c3ccccc32)cc1O`, for which the melting point was 140 °C.

`NC(=C[N+](=O)[O-])NC1CCCCCC1` gave a melting point of 118 to 125 °C.

`COC(=O)N(Cc1nc(-c2ccccc2)c(-c2ccccc2)o1)c1cccc(OCC(=O)O)c1` gave a melting point of 153 to 155 °C.

As to `Cc1ccc2c(c1)CC(=O)c1cc(C(C)C(=O)O)ccc1O2` (stereo not drawn), the melting point was in the range of 128 to 129 °C.

For `Nc1nc2c(nc(Br)n2Cc2cccnc2)c(=O)[nH]1`, the melting point was above 300 °C.

For `O=C1N(CC2CCCO2)c2cccc(Cl)c2C12COc1cc3c(cc12)CCO3` (stereo not drawn), the melting point lay in the range of 78 to 82 °C.

`O=C1NCCN1CCN1CC=C(c2cn(-c3ccc(F)cc3)c3ccc(C(F)(F)F)cc23)CC1` registered a melting point of 200 °C.

`N#Cc1ccc(OCC(O)CN2CC3CC(C2)CN(C(=O)Oc2ccc(F)cc2)C3)cc1` (stereo not drawn) had a melting point of 145 to 146 °C.

Molecule `CC(CCC(F)(F)C(C)(C)O)C1CCC2C3CCC4=CC(=O)CCC4(C)C3CCC12C` (stereo not drawn) showed a melting point of 177 to 178 °C.

For the molecule `O=C(Cc1cccnc1)N1CCC(C2=c3ccc(Cl)cc3=CCc3c(Cl)ccnc32)CC1`, the melting point lay within 100 to 103 °C.

In the case of `CCOC(=O)NNc1cc(C)c(-c2ccccc2)nn1`, the melting point was in the range of 143 to 145 °C.

Turning to `CC1(C)Oc2ccc(C(=O)CO)cc2[C@H](NC(=O)c2ccc(F)c(Cl)c2)[C@@H]1O`, the melting point came out at 200 °C.

For `COc1cc2c(Nc3ccc(Sc4nccn4C)c(Cl)c3)c(C#N)cnc2cc1-c1ccc(CN2CCOCC2)cc1`, the melting point lay in the range of 260 to 262 °C.

In turn, `CC(=NNC(=O)c1ccc([N+](=O)[O-])cc1)c1ccncc1` came in with a melting point of 251 °C.

In turn, `CCn1cc(C(=O)O)c(=O)c2cc(F)c(N3CCN4CCC3CC4)c(F)c21` registered a melting point of 261 to 263 °C.

`O=C(Nc1cccc2c(-c3ccccc3)c([N+](=O)[O-])oc12)C(F)(F)F`: the melting point was in the range of 194 to 196 °C.

Turning to `CCCN(CCCN1C(=O)c2ccccc2S1(=O)=O)C1CCc2cccc(OC)c2C1` (stereo not drawn), the melting point was determined as 131 °C.

For the molecule `CN1Cc2c(-c3noc(C4CC4)n3)ncn2-c2ccccc2C1=O`, the melting point lay in the range of 179 to 181 °C.

With `Cc1ccc(C(=O)[C@@](O)(C(=O)O)[C@H](O)C(=O)O)cc1`, the melting point was in the range of 126 to 130 °C.

`O=C1c2ccccc2C(=O)N1CCCC(c1ccc(F)cc1)c1ccc(F)cc1` had a melting point of 69 to 70 °C.

The molecule `Nc1cc(Cl)cc2c1NCCC2=O` came in with a melting point of 142 to 144 °C.

As for `O=C1CN2Cc3cccc(OCCCC(=O)N(CCO)CCCCC4CCCCC4)c3N=C2N1`, the melting point was in the range of 110 to 111 °C.

`CCn1nc(C(=O)NC2CN(C)CCN(Cc3ccccc3)C2)c2ccccc21` (stereo not drawn) gave a melting point of 135 to 137 °C.

Molecule `CC(C(N)=O)c1ccc2c(c1)CCc1cccnc1O2` (stereo not drawn) returned a melting point of 162 to 165 °C.

Molecule `CCc1nn2c(-c3ccc(OC)cc3OC)cccc2c1N(CC)CCF` registered a melting point of 51.2 to 53.6 °C.

On to `CC1CC=C(c2ccc(C(C)O)cc2)CC1` (stereo not drawn), for which the melting point lay within 65 to 67 °C.

Regarding `CC(C)Oc1ccc(/C=C/C(=O)O)c(Oc2ncc(C(F)(F)F)cc2Cl)c1`, the melting point was 138 to 140 °C.

Turning to `COC(=O)c1ccc2c(c1)NC(=O)C(CCO)O2` (stereo not drawn), the melting point lay within 167 to 169 °C.

As to `O=C(O)CC1(c2ccc(F)cc2)CNC(=O)C1` (stereo not drawn), the melting point was 174 to 176 °C.

`CC(C(=O)O)c1ccc(N2CC(O)C(O)C2)c(Cl)c1` (stereo not drawn) returned a melting point of 112 to 114 °C.

`CCCCOCC(O)COc1ccc(-c2nc(-c3ccc(C)cc3C)nc(-c3ccc(C)cc3C)n2)c(O)c1` (stereo not drawn) showed a melting point of 80 to 83 °C.

The molecule `CC(C)(C)C(=O)C(Br)C(c1ccc(Cl)cc1)S(=O)(=O)c1ccccc1` (stereo not drawn) yielded a melting point of 167 to 168 °C.

Consider `O=C(O)c1cc2nc(-c3ccccc3)nn2cc1F`, for which the melting point is above 250 °C.

Take `Cc1cccc(-c2[nH]c(C(C)C)nc2-c2cccc(-c3cccc(S(C)(=O)=O)c3)c2)n1`: the melting point lay in the range of 97 to 100 °C.

Molecule `CC(C)N1C(=O)C2Cc3c(nc(C(=O)c4ccccc4)n3Cc3ccccc3)CN2C1=O` (stereo not drawn) gave a melting point of 215 to 217 °C.

As for `CC(C)(C)NC(=O)c1nn(-c2ccc(F)cc2F)c2c1C1CC3CC(C1)CC2C3`, the melting point was 188 to 190 °C.

Molecule `CC(=O)NCc1cccc2c1C(=O)N(C1CCC(=O)NC1=O)C2=O` (stereo not drawn) returned a melting point of 177 to 179 °C.

As for `O=C(O)C(=O)c1cn(Cc2ccc(F)cc2)c2ccc(-c3ccc(OC(F)(F)F)cc3)cc12`, the melting point was 158 to 159 °C.

The molecule `O=S(=O)(Nc1ccccc1OCC1CCN(c2ccncc2)CC1)c1ccc2cc(Br)ccc2c1` returned a melting point of 197 to 200 °C.

Molecule `CC(=O)NCCCc1c(N)ccc2c1C(=O)c1ccccc1C2=O` came in with a melting point of 202 °C.

The molecule `CCOC(=O)C1=NN=C(c2ccc(OC)c(OC)c2)c2cc(OC)c(OC)cc2C1CC` (stereo not drawn) returned a melting point of 178 to 180 °C.

In turn, `CC(=O)Nc1cccc(C(=O)CN2C=CSC2NC(C)=O)c1` (stereo not drawn) registered a melting point of 224 to 226 °C.

In turn, `CC1(C)Oc2ccc(C#N)cc2[C@@H](NC2=C(CO)C(=O)CC2)[C@@H]1O` (relative stereo) yielded a melting point of 218 to 220 °C.

In turn, `COc1cccc(CNC(=O)c2ccc(CCl)cc2)c1` showed a melting point of 108 to 110 °C.

Turning to `O=C(Nc1ccncc1)c1cc2ccnc(Cl)c2[nH]1`, the melting point is above 320 °C.

Molecule `O=[N+]([O-])c1ccccc1N=Nc1ccccc1` yielded a melting point of 139 to 141 °C.

`COP(=O)(Nc1ccc(N)cc1)OC` gave a melting point of 125 °C.

In turn, `COc1ccc(C(C)(C)C)cc1NC(=O)Nc1ccc(-c2cnc3c(c2)NC(=O)CN3)c2ccccc12` showed a melting point above 230 °C.

With `COc1ccc([C@@H](CO)[C@H]2CCCCN2C(=O)OC(C)(C)C)cc1`, the melting point lay in the range of 115 to 117 °C.

Take `CCOP(=O)(CCN1CCCCNc2c1c(=O)c2=O)OCC`: the melting point was 103 to 105 °C.

In turn, `CC1=CC(C)(C)C=C(O)C1` yielded a melting point of 46 °C.

With `CCCc1nc(C)cn1-c1cc(F)ccc1N`, the melting point is 38 to 42 °C.

In turn, `Cc1c(CC(=O)O)c2cc(OCc3csc(-c4ccccc4)n3)ccc2n1Cc1ccccc1` had a melting point of 150 to 151 °C.

The molecule `Nc1ncnc2c1c(-c1ccc(Oc3ccccc3)cc1)cn2C1CC2CC(O)CC2C1` (stereo not drawn) returned a melting point of 193 to 194 °C.

As to `Cc1cc(-c2ccc(Cl)c(C)c2)nc(-c2cccc(-c3ccc(S(N)(=O)=O)s3)c2)n1`, the melting point stood at 240 °C.

Molecule `CCCCCCCCCCCCCCCCC(O)CN(C)CCO` (stereo not drawn) gave a melting point of 39 to 40.6 °C.

As to `OCc1ccc(OCc2ccccc2)cc1O`, the melting point is 88 to 90 °C.

Regarding `O=C(CN1CCN(C(=O)c2cc(C(F)(F)F)cc(C(F)(F)F)c2)[C@H](Cc2c[nH]c3ccccc23)C1)c1ccc(F)cc1`, the melting point was in the range of 95 to 105 °C.

With `Cc1cc(=O)c(-c2ccc(Cl)cc2)c(C)n1C`, the melting point fell in the range of 221 to 222 °C.

Consider `CCN(CC)C(=S)SCCNC(=O)CCNC(=O)OCc1ccccc1`, for which the melting point was 90 to 93 °C.

For the molecule `COC(=O)Cc1ccc(C(C)=O)cc1`, the melting point stood at 44 °C.

For `Cc1cc(Br)cnc1CCCCNc1ncc(Cc2cccnc2)cc1O`, the melting point lay in the range of 164 to 166 °C.

With `COC(=O)c1ccc(OC2CCCCO2)cc1` (stereo not drawn), the melting point lay in the range of 58 to 62 °C.

For the molecule `COc1cc(CNC(=O)c2ccc3n2Cc2ccccc2N(C(=O)COc2ccc(Cl)cc2C)C3)ccc1O`, the melting point is 167 to 168 °C.

`O=C(O)c1ccc(C(=O)NC/C=C/c2ccccc2)cc1` yielded a melting point of 176 to 178 °C.

Turning to `CC(=O)Oc1cc(OCC(=O)c2ccc3c(c2)C(C)(C)CCC3(C)C)ccc1C(=O)OCc1ccccc1`, the melting point is 137 to 138 °C.

As to `Oc1cccc(-c2nc3n(n2)Cc2ccccc2-3)c1`, the melting point fell in the range of 251 to 252 °C.

`COc1ccc(Nc2nc(NCCNC(=O)OC(C)(C)C)nc(NC3CCCCCC3)n2)cc1Cl` registered a melting point of 94 °C.

The molecule `Clc1ccc(C(Cl)(Cl)Cl)cn1` showed a melting point of 51 to 54 °C.

`CCC(O)(CC)c1ccc(-c2cccc(OCc3ccc(CO)c(CO)c3)c2)cc1C`: the melting point stood at 76 °C.

For the molecule `CC(=O)C[C@@H]1c2cc(C#N)ccc2OC(C)(C)[C@H]1O` (relative stereo), the melting point fell in the range of 114 to 115 °C.

`O=C1C2CCCCC2C(=O)N1c1ccc(F)cc1F` (stereo not drawn) displayed a melting point of 117 to 123 °C.

The record behind these values is a melting point compilation (Tetko et al.; mined from patent text by program, amines drawn as free bases though some values may be those of a salt).
